Results reported in patent publication US20260159525A1, “TRICYCLIC HETEROCYCLES” (Merck Patent GmbH, priority 2021, published 2026).

What was measured:
Format in all cases: cell-based
YAP-TEAD interaction = experiment: SK-HEP-1 reporter assay (8x TEAD responsive elements driving NanoLuc luciferase); conditions: Homo sapiens, SK-HEP1, SK-HEP-1 cells, 24 hour incubation
How it was run: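 SK-HEP-1 cells carrying a stably integrated 8× TEAD-element NanoLuc reporter, seeded 24 h before dosing, were treated in duplicate with a 10-point dose series (top 30 μM final, 0.3% DMSO) for 24 h at 37°C, 5% CO2. Luciferase activity read by NanoGlo luminescence; IC50 derived from it.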

NCI-H226 cells = experiment: Viability assay in NCI-H226 (Yap-dependent) cells, CyQUANT; conditions: Homo sapiens, NCI-H226 YAP dependent cell line, 96 hour incubation, group symbols
How it was run: (§1)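 Cells were seeded 24 h before dosing, then given a 10-point, 1:3 compound series from 30 μM final (0.3% DMSO) in duplicate. After 96 h at 37 °C, viability was read by CyQUANT DNA-dye fluorescence.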

SW620 Yap KO cells = experiment: Viability assay in SW620 Yap KO (Yap independent) cells, CyQUANT; conditions: Homo sapiens, SW-620, SW620 YAP and TAZ knocked out (YAP independent), 96 hour incubation
How it was run: as §1

[1] = number, or n.d. (x) = not detectable below threshold x
[2] = n.d. (x) = not detectable below threshold x

Cn1cc2c3cc(C(=O)N[C@@H](CO)c4ccccn4)sc3n(-c3ccc(C(F)F)cn3)c2n1 [Compound 120, 7-[5-(difluoromethyl)pyridin-2-yl]-N-[(1R)-2-hydroxy-1-(pyridin-2-yl)ethyl]-4-methyl-9-thia-4,5,7-triazatricyclo[6.3.0.0^2,6]undeca-1(8),2,5,10-tetraene-10-carboxamide]
IC50 (YAP-TEAD interaction; [1]): > 0.3 µM | IC50 (NCI-H226 cells): 0.1 to 1 µM | IC50 (SW620 Yap KO cells; [2]): > 30 µM

Cn1cc2c3cc(C(=O)N4CC[C@H](O)C4)sc3n(-c3ccc(C(F)F)cc3)c2n1 [Compound 105, (3S)-1-{7-[4-(difluoromethyl)phenyl]-4-methyl-9-thia-4,5,7-triazatricyclo[6.3.0.0^2,6]undeca-1(8),2,5,10-tetraene-10-carbonyl}pyrrolidin-3-ol]
IC50 (YAP-TEAD interaction; group symbols): 0.01 to 0.1 µM | IC50 (NCI-H226 cells): 0.1 to 1 µM | IC50 (SW620 Yap KO cells; [2]): > 30 µM

Cn1cc2c3cc(C(=O)NCc4ccccn4)sc3n(-c3ccc(C(F)(F)F)cc3)c2n1 [Compound 66, 4-methyl-N-[(pyridin-2-yl)methyl]-7-[4-(trifluoromethyl)phenyl]-9-thia-4,5,7-triazatricyclo[6.3.0.0^2,6]undeca-1(8),2,5,10-tetraene-10-carboxamide]
IC50 (YAP-TEAD interaction; [1]): > 9.5 µM | IC50 (NCI-H226 cells): 0.001 to 0.1 µM | IC50 (SW620 Yap KO cells; [2]): > 3 µM

Cn1cc2c3sc(C(=O)O)cc3n(C[C@H]3C[C@@H](C(F)(F)F)C3)c2n1 [Compound 36, 10-methyl-7-{[(1s,3s)-3-(trifluoromethyl)cyclobutyl]methyl}-3-thia-7,9,10-triazatricyclo[6.3.0.0^2,6]undeca-1(11),2(6),4,8-tetraene-4-carboxylic acid]
IC50 (YAP-TEAD interaction; group symbols): 0.1 to 10 µM | IC50 (NCI-H226 cells): 0.1 to 1 µM | IC50 (SW620 Yap KO cells; [2]): > 30 µM

CNC(=O)c1cc2c3cn(C)nc3n(-c3ccc(C(F)F)cn3)c2s1 [Compound 119, 7-[5-(difluoromethyl)pyridin-2-yl]-N,4-dimethyl-9-thia-4,5,7-triazatricyclo[6.3.0.0^2,6]undeca-1(8),2,5,10-tetraene-10-carboxamide]
IC50 (YAP-TEAD interaction; [1]): > 30 µM | IC50 (NCI-H226 cells): 0.1 to 1 µM | IC50 (SW620 Yap KO cells; [2]): > 30 µM

Cn1cc2c3cc(C(=O)NCc4cccnc4)sc3n(-c3ccc(C(F)(F)F)cc3)c2n1 [Compound 45, 4-methyl-N-[(pyridin-3-yl)methyl]-7-[4-(trifluoromethyl)phenyl]-9-thia-4,5,7-triazatricyclo[6.3.0.0^2,6]undeca-1(8),2,5,10-tetraene-10-carboxamide]
IC50 (YAP-TEAD interaction; [1]): > 9.5 µM | IC50 (NCI-H226 cells): 0.001 to 0.1 µM | IC50 (SW620 Yap KO cells; group symbols): 1 to 10 µM

C[C@H](CO)NC(=O)c1cc2c3cn(C)nc3n(-c3ccc(C(F)(F)F)cc3)c2s1 [Compound 33, N-[(2R)-1-hydroxypropan-2-yl]-4-methyl-7-[4-(trifluoromethyl)phenyl]-9-thia-4,5,7-triazatricyclo[6.3.0.0^2,6]undeca-1(8),2,5,10-tetraene-10-carboxamide]
IC50 (YAP-TEAD interaction; group symbols): 0.01 to 0.1 µM | IC50 (NCI-H226 cells): 0.001 to 0.1 µM | IC50 (SW620 Yap KO cells; [2]): > 3.2 µM

Cc1nc2c3sc(C(=O)O)cc3n(-c3ccc(OC(F)(F)F)cc3)c2s1 [Compound 25, 4-methyl-7-[4-(trifluoromethoxy)phenyl]-5,11-dithia-3,7-diazatricyclo[6.3.0.0^2,6]undeca-1(8),2(6),3,9-tetraene-10-carboxylic acid]
IC50 (YAP-TEAD interaction; group symbols): 0.01 to 0.1 µM | IC50 (NCI-H226 cells): 0.1 to 1 µM | IC50 (SW620 Yap KO cells; [2]): > 30 µM

Cn1cc2c3cc(C(=O)O)sc3n(-c3ccc(C(F)F)cc3)c2n1 [Compound 99, 7-[4-(difluoromethyl)phenyl]-4-methyl-9-thia-4,5,7-triazatricyclo[6.3.0.0^2,6]undeca-1(8),2,5,10-tetraene-10-carboxylic acid]
IC50 (YAP-TEAD interaction; group symbols): 0.1 to 10 µM | IC50 (NCI-H226 cells): 0.1 to 1 µM | IC50 (SW620 Yap KO cells; [2]): > 30 µM

CNC(=O)c1cc2c3cn(C)nc3n(-c3ccc(C(F)(F)F)cn3)c2s1 [Compound 47, N,4-dimethyl-7-[5-(trifluoromethyl)pyridin-2-yl]-9-thia-4,5,7-triazatricyclo[6.3.0.0^2,6]undeca-1(8),2,5,10-tetraene-10-carboxamide]
IC50 (YAP-TEAD interaction; group symbols): 0.01 to 0.1 µM | IC50 (NCI-H226 cells): 0.001 to 0.1 µM | IC50 (SW620 Yap KO cells; group symbols): 1 to 10 µM

CNC(=O)c1cc2c3cn(C)nc3n(-c3ccc(OC(F)(F)F)cn3)c2s1 [Compound 124, N,4-dimethyl-7-[5-(trifluoromethoxy)pyridin-2-yl]-9-thia-4,5,7-triazatricyclo[6.3.0.0^2,6]undeca-1(8),2,5,10-tetraene-10-carboxamide]
IC50 (YAP-TEAD interaction; group symbols): 0.1 to 10 µM | IC50 (NCI-H226 cells): 0.001 to 0.1 µM | IC50 (SW620 Yap KO cells; [2]): > 3 µM
